US20110039721A1, “METHOD FOR PREDICTION ABOUT CARCINOGENICITY OF SUBSTANCE IN RODENT” (Chemicals Evaluation and Research Institute, priority 2007, published 2011)
Like-named read-outs stand apart in the source and are kept apart here.

Assays:
[1] = system: rodent; conditions: cited from earlier work
[2] = system: mRNA expressed from the genes (A) to (D) in rat liver; experiment: Behavior of genes (mRNA expression level, oligo-DNA microarray) in rat liver after 28-day oral administration; format: in vivo
How it was run: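 Liver mRNA measured by oligo-DNA microarray after 28 days of once-daily oral gavage in 5-week-old male F344 rats (n=4 per group), with vehicle controls given equal solvent volume. Significance threshold: 1.5-fold up or down versus control, with changes opposite in direction to other carcinogens counted as not significant.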

[3] = system: liver; conditions: cited from earlier work
[4] = gene group (A), Unigene No. Rn.144554, mRNA vs vehicle control group
[5] = gene group (A), Unigene No. Rn.167075, mRNA vs vehicle control group
[6] = gene group (A), Unigene No. Rn.5834, mRNA vs vehicle control group
[7] = gene group (A), Unigene No. Rn.9836, mRNA vs vehicle control group
[8] = gene group (B), Unigene No. Rn.1430, mRNA vs vehicle control group
[9] = gene group (B), Unigene No. Rn.19329, mRNA vs vehicle control group
[10] = gene group (B), Unigene No. Rn.21240, mRNA vs vehicle control group
[11] = gene group (C), Unigene No. Rn.106184, mRNA vs vehicle control group
[12] = gene group (C), Unigene No. Rn.108075, mRNA vs vehicle control group
[13] = gene group (C), Unigene No. Rn.11766, mRNA vs vehicle control group
[14] = gene group (C), Unigene No. Rn.118529, mRNA vs vehicle control group
[15] = gene group (C), Unigene No. Rn.119024, mRNA vs vehicle control group
[16] = gene group (C), Unigene No. Rn.120914, mRNA vs vehicle control group
[17] = gene group (C), Unigene No. Rn.123063, mRNA vs vehicle control group
[18] = gene group (C), Unigene No. Rn.143213, mRNA vs vehicle control group
[19] = gene group (C), Unigene No. Rn.144946, mRNA vs vehicle control group
[20] = gene group (C), Unigene No. Rn.14744, mRNA vs vehicle control group
[21] = gene group (C), Unigene No. Rn.1647, mRNA vs vehicle control group
[22] = gene group (C), Unigene No. Rn.164817, mRNA vs vehicle control group
[23] = gene group (C), Unigene No. Rn.167685, mRNA vs vehicle control group
[24] = gene group (C), Unigene No. Rn.185941, mRNA vs vehicle control group
[25] = gene group (C), Unigene No. Rn.18728, mRNA vs vehicle control group
[26] = gene group (C), Unigene No. Rn.201760, mRNA vs vehicle control group
[27] = gene group (C), Unigene No. Rn.23969, mRNA vs vehicle control group
[28] = gene group (C), Unigene No. Rn.24561, mRNA vs vehicle control group
[29] = gene group (C), Unigene No. Rn.43232, mRNA vs vehicle control group
[30] = gene group (C), Unigene No. Rn.4620, mRNA vs vehicle control group
[31] = gene group (C), Unigene No. Rn.9757, mRNA vs vehicle control group
[32] = gene group (C), Unigene No. Rn.9779, mRNA vs vehicle control group
[33] = gene group (C), Unigene No. Rn.9862, mRNA vs vehicle control group
[34] = gene group (D), Unigene No. Rn.9939, mRNA vs vehicle control group

Compound: CCCCC(CC)COC(=O)CCCCC(=O)OCC(CC)CCCC (stereo not drawn) [TS018, Di(2-ethylhexyl)adipate]
- Carcinogenicity ([1]; classification of the substance (C+/C−)): C+
- Behavior of gene caused by administration of chemical substance, Gene No. 4846 [2, 4]: −
- Behavior of gene caused by administration of chemical substance, Gene No. 2026 [2, 5]: −
- Behavior of gene caused by administration of chemical substance, Gene No. 4218 [2, 5]: −
- Behavior of gene caused by administration of chemical substance, Gene No. 6182 [2, 6]: +
- Behavior of gene caused by administration of chemical substance, Gene No. 5600 [2, 7]: −
- Behavior of gene caused by administration of chemical substance, Gene No. 1494 [2, 8]: +
- Behavior of gene caused by administration of chemical substance, Gene No. 2045 [2, 9]: +
- Behavior of gene caused by administration of chemical substance, Gene No. 2203 [2, 10]: +
- Behavior of gene caused by administration of chemical substance, Gene No. 533 [2, 11]: +
- Behavior of gene caused by administration of chemical substance, Gene No. 725 [2, 12]: −
- Behavior of gene caused by administration of chemical substance, Gene No. 1163 [2, 13]: −
- Behavior of gene caused by administration of chemical substance, Gene No. 4973 [2, 14]: +
- Behavior of gene caused by administration of chemical substance, Gene No. 4095 [2, 15]: +
- Behavior of gene caused by administration of chemical substance, Gene No. 1334 [2, 16]: −
- Behavior of gene caused by administration of chemical substance, Gene No. 6620 [2, 16]: −
- Behavior of gene caused by administration of chemical substance, Gene No. 6303 [2, 17]: −
- Behavior of gene caused by administration of chemical substance, Gene No. 5878 [2, 18]: −
- Behavior of gene caused by administration of chemical substance, Gene No. 1131 [2, 19]: −
- Behavior of gene caused by administration of chemical substance, Gene No. 1562 [2, 20]: −
- Behavior of gene caused by administration of chemical substance, Gene No. 1741 [2, 21]: −
- Behavior of gene caused by administration of chemical substance, Gene No. 893 [2, 22]: −
- Behavior of gene caused by administration of chemical substance, Gene No. 6026 [2, 23]: −
- Behavior of gene caused by administration of chemical substance, Gene No. 154 [2, 24]: −
- Behavior of gene caused by administration of chemical substance, Gene No. 1993 [2, 25]: −
- Behavior of gene caused by administration of chemical substance, Gene No. 813 [2, 26]: −
- Behavior of gene caused by administration of chemical substance, Gene No. 2494 [2, 27]: −
- Behavior of gene caused by administration of chemical substance, Gene No. 2546 [2, 28]: −
- Behavior of gene caused by administration of chemical substance, Gene No. 3776 [2, 29]: −
- Behavior of gene caused by administration of chemical substance, Gene No. 3929 [2, 30]: −
- Behavior of gene caused by administration of chemical substance, Gene No. 1119 [2, 31]: −
- Behavior of gene caused by administration of chemical substance, Gene No. 6742 [2, 32]: −
- Behavior of gene caused by administration of chemical substance, Gene No. 5634 [2, 33]: −
- Behavior of gene caused by administration of chemical substance, Gene No. 5726 [2, 34]: −
- Liver carcinogenicity ([3]; classification of the substance (Cr+/Cr−)): Cr−

Compound: Cl[C@H]1[C@H](Cl)[C@H](Cl)[C@@H](Cl)[C@H](Cl)[C@H]1Cl [TS021, α-Hexachlorocyclohexane]
- Carcinogenicity ([1]; in vivo): C+
- Behavior of gene caused by administration of chemical substance, Gene No. 154 ([2]; rat, in vivo): −
- Behavior of gene caused by administration of chemical substance, Gene No. 533 ([2]; rat, in vivo): +
- Behavior of gene caused by administration of chemical substance, Gene No. 725 ([2]; rat, in vivo): −
- Behavior of gene caused by administration of chemical substance, Gene No. 813 ([2]; rat, in vivo): +
- Behavior of gene caused by administration of chemical substance, Gene No. 893 ([2]; rat, in vivo): −
- Behavior of gene caused by administration of chemical substance, Gene No. 1119 ([2]; rat, in vivo): −
- Behavior of gene caused by administration of chemical substance, Gene No. 1131 ([2]; rat, in vivo): −
- Behavior of gene caused by administration of chemical substance, Gene No. 1163 ([2]; rat, in vivo): −
- Behavior of gene caused by administration of chemical substance, Gene No. 1334 ([2]; rat, in vivo): −
- Behavior of gene caused by administration of chemical substance, Gene No. 1494 ([2]; rat, in vivo): +
- Behavior of gene caused by administration of chemical substance, Gene No. 1562 ([2]; rat, in vivo): −
- Behavior of gene caused by administration of chemical substance, Gene No. 1741 ([2]; rat, in vivo): +
- Behavior of gene caused by administration of chemical substance, Gene No. 1993 ([2]; rat, in vivo): −
- Behavior of gene caused by administration of chemical substance, Gene No. 2026 ([2]; rat, in vivo): −
- Behavior of gene caused by administration of chemical substance, Gene No. 2045 ([2]; rat, in vivo): +
- Behavior of gene caused by administration of chemical substance, Gene No. 2203 ([2]; rat, in vivo): +
- Behavior of gene caused by administration of chemical substance, Gene No. 2494 ([2]; rat, in vivo): −
- Behavior of gene caused by administration of chemical substance, Gene No. 2546 ([2]; rat, in vivo): −
- Behavior of gene caused by administration of chemical substance, Gene No. 3776 ([2]; rat, in vivo): −
- Behavior of gene caused by administration of chemical substance, Gene No. 3929 ([2]; rat, in vivo): −
- Behavior of gene caused by administration of chemical substance, Gene No. 4095 ([2]; rat, in vivo): +
- Behavior of gene caused by administration of chemical substance, Gene No. 4218 ([2]; rat, in vivo): −
- Behavior of gene caused by administration of chemical substance, Gene No. 4846 ([2]; rat, in vivo): −
- Behavior of gene caused by administration of chemical substance, Gene No. 4973 ([2]; rat, in vivo): +
- Behavior of gene caused by administration of chemical substance, Gene No. 5600 ([2]; rat, in vivo): −
- Behavior of gene caused by administration of chemical substance, Gene No. 5634 ([2]; rat, in vivo): +
- Behavior of gene caused by administration of chemical substance, Gene No. 5726 ([2]; rat, in vivo): −
- Behavior of gene caused by administration of chemical substance, Gene No. 5878 ([2]; rat, in vivo): −
- Behavior of gene caused by administration of chemical substance, Gene No. 6026 ([2]; rat, in vivo): −
- Behavior of gene caused by administration of chemical substance, Gene No. 6182 ([2]; rat, in vivo): +
- Behavior of gene caused by administration of chemical substance, Gene No. 6303 ([2]; rat, in vivo): +
- Behavior of gene caused by administration of chemical substance, Gene No. 6620 ([2]; rat, in vivo): −
- Behavior of gene caused by administration of chemical substance, Gene No. 6742 ([2]; rat, in vivo): +
- Liver carcinogenicity ([3]; in vivo): Cr+

Compound: C=CCc1ccc2c(c1)OCO2 [TS025, Safrole]
- Carcinogenicity ([1]; in vivo): C+
- Behavior of gene caused by administration of chemical substance, Gene No. 4846 [2, 4]: +
- Behavior of gene caused by administration of chemical substance, Gene No. 2026 [2, 5]: −
- Behavior of gene caused by administration of chemical substance, Gene No. 4218 [2, 5]: +
- Behavior of gene caused by administration of chemical substance, Gene No. 6182 [2, 6]: +
- Behavior of gene caused by administration of chemical substance, Gene No. 5600 [2, 7]: +
- Behavior of gene caused by administration of chemical substance, Gene No. 1494 [2, 8]: +
- Behavior of gene caused by administration of chemical substance, Gene No. 2045 [2, 9]: +
- Behavior of gene caused by administration of chemical substance, Gene No. 2203 [2, 10]: +
- Behavior of gene caused by administration of chemical substance, Gene No. 533 [2, 11]: +
- Behavior of gene caused by administration of chemical substance, Gene No. 725 [2, 12]: +
- Behavior of gene caused by administration of chemical substance, Gene No. 1163 [2, 13]: −
- Behavior of gene caused by administration of chemical substance, Gene No. 4973 [2, 14]: +
- Behavior of gene caused by administration of chemical substance, Gene No. 4095 [2, 15]: +
- Behavior of gene caused by administration of chemical substance, Gene No. 1334 [2, 16]: −
- Behavior of gene caused by administration of chemical substance, Gene No. 6620 [2, 16]: −
- Behavior of gene caused by administration of chemical substance, Gene No. 6303 [2, 17]: +
- Behavior of gene caused by administration of chemical substance, Gene No. 5878 [2, 18]: −
- Behavior of gene caused by administration of chemical substance, Gene No. 1131 [2, 19]: −
- Behavior of gene caused by administration of chemical substance, Gene No. 1562 [2, 20]: −
- Behavior of gene caused by administration of chemical substance, Gene No. 1741 [2, 21]: +
- Behavior of gene caused by administration of chemical substance, Gene No. 893 [2, 22]: −
- Behavior of gene caused by administration of chemical substance, Gene No. 6026 [2, 23]: −
- Behavior of gene caused by administration of chemical substance, Gene No. 154 [2, 24]: +
- Behavior of gene caused by administration of chemical substance, Gene No. 1993 [2, 25]: −
- Behavior of gene caused by administration of chemical substance, Gene No. 813 [2, 26]: +
- Behavior of gene caused by administration of chemical substance, Gene No. 2494 [2, 27]: −
- Behavior of gene caused by administration of chemical substance, Gene No. 2546 [2, 28]: −
- Behavior of gene caused by administration of chemical substance, Gene No. 3776 [2, 29]: +
- Behavior of gene caused by administration of chemical substance, Gene No. 3929 [2, 30]: −
- Behavior of gene caused by administration of chemical substance, Gene No. 1119 [2, 31]: −
- Behavior of gene caused by administration of chemical substance, Gene No. 6742 [2, 32]: +
- Behavior of gene caused by administration of chemical substance, Gene No. 5634 [2, 33]: +
- Behavior of gene caused by administration of chemical substance, Gene No. 5726 [2, 34]: −
- Liver carcinogenicity ([3]; in vivo): Cr+
